{
  "source": "patent US12043644B2",
  "about": "“Benzimidazole derivatives, preparation method thereof and use thereof as anti-cancer agent or anti-virus agent comprising the same” (BIOMETRIX TECHNOLOGY INC, priority 2020, dated 2024)",
  "key": {"[1]": {"test_system": "normal lung cell line MRC-5 and the normal colon CCD-18Co cell line", "test": "Toxicity test in normal cell line (WST-8 cell viability)", "format": "cell-based", "conditions": "grade evaluated in comparison with doxorubicin, MRC-5 and CCD-18Co, 0-100 μm, 7 concentrations, 72 hours", "description": "The normal lung cell line MRC-5 and the normal colon CCD-18Co cell line were furnished from Korea Cell Line Bank (KCLB, Seoul, Korea) and cultured in culture medium. In a humidified cell culture incubator containing 5% CO2 at 37° C. using DMEM, 10% culture flask, fetal bovine serum (FBS), 0.1 mM MEM non-essential amino acids (NEAA), 2 mM L-glutamine, and 1% penicillin-streptomycin were treated with trypsin every 2-3 days according to the guidelines provided by KCLB, and the cells were sub-cultured. The culture was cultured until it reached 80-90% confluence, and the cells were continuously transferred to a culture flask for a cancer cell line growth inhibition experiment. Normal cell lines (MRC-5 and CCD-18Co) were seeded in about 10000 cells per well in a 96-well plate. After 24 hours, the three compounds shown in Table 1 below were added to each well at 7 concentrations, and incubated for 72 hours. The cell viability and analysis in the normal cell line were performed in the same manner as in Test Example 1, and the results of the toxicity test (72 hours) in the normal cell line are shown in FIG. 4."}, "[2]": {"test_system": "human lung cancer cell line A549, cervical cancer cell line Hela, and colorectal cancer cell line HT-29", "test": "Cancer cell line growth inhibition test (WST-8 cell viability)", "format": "cell-based", "conditions": "grade evaluated in comparison with doxorubicin, 0-100 μm, 7 concentrations, incubated for 72 hours", "description": "Human lung cancer cell line A549, cervical cancer cell line Hela, and colorectal cancer cell line HT-29 were furnished from Korea Cell Line Bank (KCLB, Seoul, Korea) and cultured in culture medium. In a humidified cell culture incubator containing 5% CO2 at 37° C. using DMEM, 10% culture flask, fetal bovine serum (FBS), 0.1 mM MEM non-essential amino acids (NEAA), 2 mM L-glutamine, and 1% penicillin-streptomycin were treated with trypsin every 2-3 days according to the guidelines provided by KCLB, and the cells were sub-cultured. The culture was cultured until it reached 80-90% confluence, and the cells were continuously transferred to a culture flask for a cancer cell line growth inhibition experiment. Cancer cell lines to be tested (human lung cancer cell line A549, cervical cancer cell line Hela, and colorectal cancer cell line HT-29) were seeded in about 10000 cells per well in a 96-well plate. […] After incubation, the medium was discarded and the cell viability was measured in each well using a WST-8 cell viability assay kit (Quanti-Max™, BIOMAX) according to the procedure instructed by the manufacturer. The analysis utilized the principle that the dehydrogenase in living cells decomposes tetrazolium salts to produce formazan, through which living cells were quantitatively evaluated. […]"}},
  "data": [
    {"smiles": "Cl.Nc1nc2ccc(Sc3ccccc3)cc2[nH]1", "note": "[Aminophenbendazole, reference compound]", "values": [
      {"measurement": "Normal cell line growth inhibition test", "setting": "[1]", "value": "A A A"},
      {"measurement": "Normal cell line growth inhibition test", "setting": "[1]; listed as aminophenbendazole", "value": "AAA"}
    ]},
    {"smiles": "OC[C@H]1OC(Nc2nc3ccc(Sc4ccccc4)cc3[nH]2)[C@H](O)[C@@H](O)[C@@H]1O", "note": "(stereo partly shown) [Phenhendazole-glucose conjugate, 6-(phenylthio)-1H-benzoimidazol-2-aminoglucose]", "values": [
      {"measurement": "Cancer cell line growth inhibition test", "setting": "[2]", "value": "A A A"},
      {"measurement": "Cancer cell line growth inhibition test", "setting": "[2]; listed as phenbendazole-glucose conjugate", "value": "AAA"}
    ]}
  ]
}
